What was measured:
Thromboxane A2 receptor = target: T1, Thromboxane A2 receptor (Homo sapiens, UniProt P21731); assay: Binding affinity against human recombinant Thromboxane A2 receptor was determined using radioligand competition binding assay
T1 sequence (P21731 whole entry): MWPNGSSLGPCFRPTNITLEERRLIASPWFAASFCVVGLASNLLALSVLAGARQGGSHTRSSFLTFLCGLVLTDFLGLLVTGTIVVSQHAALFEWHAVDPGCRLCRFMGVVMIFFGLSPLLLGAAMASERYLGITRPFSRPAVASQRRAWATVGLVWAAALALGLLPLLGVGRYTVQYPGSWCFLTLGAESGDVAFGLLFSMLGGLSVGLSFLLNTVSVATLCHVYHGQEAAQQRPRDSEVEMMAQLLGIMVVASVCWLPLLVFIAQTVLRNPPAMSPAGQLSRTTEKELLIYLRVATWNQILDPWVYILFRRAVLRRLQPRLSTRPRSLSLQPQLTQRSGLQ

[1] = target: T2, Prostaglandin D2 receptor (Homo sapiens, UniProt Q13258); assay: Binding affinity against human recombinant […] D2 was determined using radioligand competition binding assay
T2 sequence (Q13258 whole entry): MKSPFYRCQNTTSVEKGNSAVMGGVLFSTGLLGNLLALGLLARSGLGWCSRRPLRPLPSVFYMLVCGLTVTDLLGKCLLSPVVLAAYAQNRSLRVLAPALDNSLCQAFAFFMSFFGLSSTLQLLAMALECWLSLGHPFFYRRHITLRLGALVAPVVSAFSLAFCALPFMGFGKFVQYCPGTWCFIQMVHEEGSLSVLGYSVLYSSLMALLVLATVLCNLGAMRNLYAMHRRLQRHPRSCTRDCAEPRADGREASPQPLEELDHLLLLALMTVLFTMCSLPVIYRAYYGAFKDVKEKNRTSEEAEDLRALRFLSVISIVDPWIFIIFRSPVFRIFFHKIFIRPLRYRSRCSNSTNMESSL

[2] = target: T2, Prostaglandin D2 receptor; assay: Binding affinity against human recombinant […] D2 in presence of 0.5% human serum albumin

| Structure (SMILES) | Ki (Thromboxane A2 receptor) [nM] | Ki [1] [nM] | Ki [2] [nM] |
| --- | --- | --- | --- |
| CCOC(=O)c1cc(CSc2nc3ccccc3n2Cc2ccc(Cl)cc2)cc(C(=O)OCC)c1 | > 71000 | > 43000 | – |
| COC(=O)c1ccc(CCc2nc3ccccc3n2Cc2ccc(Cl)cc2)cc1 | 2200 | 24 | 137 |
| Fc1ccc(CSc2nc3ccccc3n2Cc2ccc(Cl)cc2)cc1 | 6100 | > 42000 | – |
| Cc1noc(-c2ccc(CSc3nc4ccccc4n3Cc3ccc(Cl)cc3)cc2)n1 | > 74000 | 310 | – |
| FC(F)(F)c1ccc(CSc2nc3ccccc3n2Cc2ccc(Cl)cc2)cc1 | > 73000 | 2600 | – |
| CSc1ccc(CSc2nc3ccccc3n2Cc2ccc(Cl)cc2)cc1 | > 73000 | 550 | – |
| NS(=O)(=O)c1ccc(CSc2nc3ccccc3n2Cc2ccc(Cl)cc2)cc1 | > 70000 | 1200 | – |
| N#Cc1ccc(CSc2nc3ccccc3n2Cc2ccc(Cl)cc2)cc1 | 950 | 4200 | – |
| CS(=O)(=O)c1ccc(CSc2nc3ccccc3n2Cc2ccc(Cl)cc2)cc1 | 2000 | 1100 | – |
| CC(=O)c1ccc(CSc2nc3ccccc3n2Cc2ccc(Cl)cc2)cc1 | 3800 | 300 | – |
| COC(=O)c1ccc(CNc2nc3ccccc3n2Cc2ccc(Cl)cc2)cc1 | 6000 | 1100 | – |
| COC(=O)c1ccc(-c2nc3ccccc3n2Cc2ccc(Cl)cc2)cc1 | 7000 | 8000 | 800 |
| COC(=O)c1ccc(C[S+]([O-])c2nc3ccccc3n2Cc2ccc(Cl)cc2)cc1 (configuration not stated) | 3100 | 550 | 1500 |
| Cc1nc(-c2ccc(CSc3nc4ccccc4n3Cc3ccc(Cl)cc3)cc2)no1 | > 74000 | 96 | – |
| CC(O)c1ccc(CSc2nc3ccccc3n2Cc2ccc(Cl)cc2)cc1 (configuration not stated) | 1500 | 270 | – |
| COC(=O)c1ccc(/C=C/c2nc3ccccc3n2Cc2ccc(Cl)cc2)cc1 | > 75000 | 38 | 67 |
| COC(=O)c1ccc(Nc2nc3ccccc3n2Cc2ccc(Cl)cc2)cc1 | 900 | 1500 | 5400 |
| COC(=O)c1ccc(Cc2nc3ccccc3n2Cc2ccc(Cl)cc2)cc1 | 4000 | 6200 | > 12000 |
| CC(C)(O)c1ccc(CSc2nc3ccccc3n2Cc2ccc(Cl)cc2)cc1 | 11900 | 140 | – |
| COC(=O)c1cccc(CSc2nc3ccccc3n2Cc2ccc(Cl)cc2)c1 | 9300 | 1100 | – |
| O=C(O)c1ccc(CSc2nc3ccccc3n2Cc2ccc(Cl)cc2)cc1 | 4700 | 3500 | – |
| COC(=O)c1ccc(CSc2nc3ccccc3n2Cc2ccc(Cl)cc2)cc1 | 9100 | 73 | 297 |
| COC(=O)Cc1ccc(CSc2nc3ccccc3n2Cc2ccc(Cl)cc2)cc1 | 1500 | 330 | – |
| Clc1ccc(Cn2c(SCc3ccccc3)nc3ccccc32)cc1 | 4200 | 6700 | – |
| CN(C)C(=O)c1ccc(CSc2nc3ccccc3n2Cc2ccc(Cl)cc2)cc1 | 2000 | 800 | – |
